Values joined by “and” are separate entries in the source; they are usually repeats but may differ in a detail not shown here. Equal values may be shown once. Toxic doses and inconclusive results are not listed. Square brackets hold non-standard residues; d marks the D form. Peptide text beside a SMILES is read from it. * marks the point of attachment. ξ: configuration not given here. Boc = CC(C)(C)OC(=O)*; ξP = O=C(O)C1CCCN1
System: P388 leukemia ip, CD2F1 mice, survival T/C
Assay: NCI In Vivo Anticancer Drug Screen. Data for tumor model P388 Leukemia (intraperitoneal) in CD2F1 (CDF1) mice
Conditions: endpoint: median survival time, higher = longer survival
Outline: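 Mice carrying the transplanted tumor received test compound or vehicle. Survival was recorded in each group, and the value is the treated-group measurement divided by that of the vehicle-treated control group.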

[1] = dose: 6.25 mg/kg/injection, schedule: Q01DX009 (ip), vehicle: water
[2] = dose: 100.0 mg/kg/injection, schedule: Q01DX001 (ip), vehicle: Klucel (hydroxypropylcellulose) (HPC)
[3] = dose: 50.0 mg/kg/injection, schedule: Q01DX005 (ip), vehicle: Klucel (hydroxypropylcellulose) (HPC)
[4] = dose: 100.0 mg/kg/injection, schedule: Q01DX005 (ip), vehicle: Klucel (hydroxypropylcellulose) (HPC)
[5] = dose: 200.0 mg/kg/injection, schedule: Q01DX005 (ip), vehicle: Klucel (hydroxypropylcellulose) (HPC)
[6] = dose: 50.0 mg/kg/injection, schedule: Q01DX009 (ip), vehicle: saline with Tween-80
[7] = dose: 100.0 mg/kg/injection, schedule: Q01DX009 (ip), vehicle: saline with Tween-80
[8] = dose: 200.0 mg/kg/injection, schedule: Q01DX009 (ip), vehicle: saline with Tween-80
[9] = dose: 60.0 mg/kg/injection, schedule: Q01DX005 (ip), vehicle: saline with Tween-80
[10] = dose: 120.0 mg/kg/injection, schedule: Q01DX005 (ip), vehicle: saline with Tween-80
[11] = dose: 240.0 mg/kg/injection, schedule: Q01DX005 (ip), vehicle: saline with Tween-80
[12] = dose: 50.0 mg/kg/injection, schedule: Q01DX009 (ip), vehicle: saline
[13] = dose: 100.0 mg/kg/injection, schedule: Q01DX009 (ip), vehicle: saline
[14] = dose: 200.0 mg/kg/injection, schedule: Q01DX009 (ip), vehicle: saline

For `C[n+]1c(/C=C2/SC=C(c3ccccc3)S2)ccc2ccccc21`, the T/C (dose: 0.78 mg/kg/injection, schedule: Q04DX002 (ip), vehicle: saline with Tween-80) was 102 % of control and 119 % of control, the T/C (dose: 1.56 mg/kg/injection, schedule: Q04DX002 (ip), vehicle: saline with Tween-80) was 109 % of control and 123 % of control and the T/C (dose: 3.12 mg/kg/injection, schedule: Q04DX002 (ip), vehicle: saline with Tween-80) was 119 % of control.
With `O=NNc1nccs1` the T/C (dose: 1.56 mg/kg/injection, schedule: Q01DX009 (ip), vehicle: water) was 96 % of control, the T/C (dose: 3.12 mg/kg/injection, schedule: Q01DX009 (ip), vehicle: water) was 100 % of control and the T/C [1] was 99 % of control. The T/C (dose: 12.5 mg/kg/injection, schedule: Q01DX009 (ip), vehicle: water) was 97 % of control.
With `COc1cc(Cc2nnc(Nc3ccccc3)[nH]c2=O)cc(OC)c1OC` the T/C [2] was 98 % of control, the T/C (dose: 200.0 mg/kg/injection, schedule: Q01DX001 (ip), vehicle: Klucel (hydroxypropylcellulose) (HPC)) was 94 % of control and the T/C (dose: 400.0 mg/kg/injection, schedule: Q01DX001 (ip), vehicle: Klucel (hydroxypropylcellulose) (HPC)) was 98 % of control.
For `Nc1ccn(COC(CO)CO)c(=O)n1`, the T/C (dose: 100.0 mg/kg/injection, schedule: Q04DX002 (ip), vehicle: saline) was 97 % of control, the T/C (dose: 200.0 mg/kg/injection, schedule: Q04DX002 (ip), vehicle: saline) was 98 % of control and the T/C (dose: 400.0 mg/kg/injection, schedule: Q04DX002 (ip), vehicle: saline) was 103 % of control.
`Nc1ccccc1C(=O)N/N=C/c1cccnc1` was tested, and the T/C [3] was 100 % of control, the T/C [4] was 98 % of control and the T/C [5] was 98 % of control.
`COc1cc2c(c(OC)c1OC)-c1ccc(=O)c(OC)cc1C(N(C)C(C)=O)CC2` (centres undefined) was tested, and the T/C (dose: 1.25 mg/kg/injection, schedule: Q01DX009 (ip), vehicle: Klucel (hydroxypropylcellulose) (HPC)) was 100 % of control, the T/C (dose: 2.5 mg/kg/injection, schedule: Q01DX009 (ip), vehicle: Klucel (hydroxypropylcellulose) (HPC)) was 100 % of control and the T/C (dose: 5.0 mg/kg/injection, schedule: Q01DX009 (ip), vehicle: Klucel (hydroxypropylcellulose) (HPC)) was 113 % of control. The T/C (dose: 10.0 mg/kg/injection, schedule: Q01DX009 (ip), vehicle: Klucel (hydroxypropylcellulose) (HPC)) was 103 % of control and the T/C (dose: 20.0 mg/kg/injection, schedule: Q01DX009 (ip), vehicle: Klucel (hydroxypropylcellulose) (HPC)) was 106 % of control.
In the case of `COc1ccc(C2(c3ccc(OC)cc3)N=NC3(C)CC32)cc1` (centres undefined), the T/C (dose: 100.0 mg/kg/injection, schedule: Q01DX001 (ip), vehicle: saline with Tween-80) is reported as 92 % of control, the T/C (dose: 200.0 mg/kg/injection, schedule: Q01DX001 (ip), vehicle: saline with Tween-80) is reported as 89 % of control and the T/C (dose: 400.0 mg/kg/injection, schedule: Q01DX001 (ip), vehicle: saline with Tween-80) is reported as 86 % of control.
For `c1ccc(-c2csc(=[N+]3CCCCC3)s2)cc1`, the T/C [1] was 111 % of control and 117 % of control and 124 % of control.
In the case of `COc1ccc2c(c1)N(S(=O)(=O)c1ccc(C)cc1)C/C(=C\N1CCN(c3ccccc3)CC1)C2=O`, the T/C [3] is reported as 96 % of control, the T/C [4] is reported as 98 % of control and the T/C [5] is reported as 91 % of control.
With `O=C(O)C(CCCCNC(=S)S)NC(=S)S.[Na+].[Zn+2]` (centres undefined) the T/C [3] was 95 % of control, the T/C [4] was 95 % of control and the T/C [5] was 102 % of control.
With `N#CCCC12CCC(=O)N1Cc1ccccc1C2=O` (centres undefined) the T/C (dose: 60.0 mg/kg/injection, schedule: Q01DX005 (ip), vehicle: saline) was 105 % of control, the T/C (dose: 120.0 mg/kg/injection, schedule: Q01DX005 (ip), vehicle: saline) was 123 % of control and the T/C (dose: 240.0 mg/kg/injection, schedule: Q01DX005 (ip), vehicle: saline) was 123 % of control.
For `C=CCc1cn(C2CC(OC(=O)c3ccc(Cl)cc3)C(COC(=O)c3ccc(Cl)cc3)O2)c(=O)[nH]c1=O` (centres undefined), the T/C [3] was 98 % of control, the T/C [4] was 98 % of control and the T/C [5] was 91 % of control.
For `Cc1sc2ccccc2[n+]1CCC(=O)O`, the T/C [6] was 100 % of control, the T/C [7] was 100 % of control and the T/C [8] was 98 % of control. The T/C (dose: 400.0 mg/kg/injection, schedule: Q01DX009 (ip), vehicle: saline with Tween-80) was 98 % of control.
For `O=C(O)c1cccc2nc3cc4c(c(C(=O)O)c3nc12)OCO4`, the T/C [9] was 93 % of control, the T/C [10] was 99 % of control and the T/C [11] was 105 % of control.
With `CCOC(=O)NC(C(=O)N(C(=O)NC1CCCCC1)C1CCCCC1)C(C)C` (centres undefined) the T/C [3] was 100 % of control, the T/C [4] was 95 % of control and the T/C [5] was 90 % of control.
`Fc1cccc2c(SCCCCCCSc3c4ccccc4nc4c(F)cccc34)c3ccccc3nc12` was tested, and the T/C (dose: 60.0 mg/kg/injection, schedule: Q01DX005 (ip), vehicle: Klucel (hydroxypropylcellulose) (HPC)) was 89 % of control, the T/C (dose: 120.0 mg/kg/injection, schedule: Q01DX005 (ip), vehicle: Klucel (hydroxypropylcellulose) (HPC)) was 89 % of control and the T/C (dose: 240.0 mg/kg/injection, schedule: Q01DX005 (ip), vehicle: Klucel (hydroxypropylcellulose) (HPC)) was 90 % of control.
With `NS(=O)(=O)c1cccnc1Nc1cccc(Cl)c1Cl` the T/C [12] was 100 % of control, the T/C [13] was 100 % of control and the T/C [14] was 96 % of control.
For `CNC(=O)c1cccc2ccc[n+](C)c12`, the T/C (dose: 0.62 mg/kg/injection, schedule: Q04DX002 (ip), vehicle: saline) was 107 % of control, the T/C (dose: 1.25 mg/kg/injection, schedule: Q04DX002 (ip), vehicle: saline) was 109 % of control and the T/C (dose: 2.5 mg/kg/injection, schedule: Q04DX002 (ip), vehicle: saline) was 108 % of control.
With `COC(=O)C1CCCN1C(=O)CNC(=O)OC(C)(C)C` (stereo not drawn) (Boc-Gly-[ξP]-OMe) the T/C [12] was 105 % of control, the T/C [13] was 99 % of control and the T/C [14] was 99 % of control. The T/C (dose: 400.0 mg/kg/injection, schedule: Q01DX009 (ip), vehicle: saline) was 90 % of control.
For `CCN(CC)c1ccc(C=C2C(=O)NC(=S)NC2=O)cc1`, the T/C (dose: 25.0 mg/kg/injection, schedule: Q01DX005 (ip), vehicle: Klucel (hydroxypropylcellulose) (HPC)) was 101 % of control, the T/C [3] was 100 % of control and the T/C [4] was 101 % of control. The T/C [5] was 100 % of control.
`CC1(CO)C2CCC(CC2)C1CO` (centres undefined) was tested, and the T/C [6] was 109 % of control, the T/C [7] was 100 % of control and the T/C [8] was 104 % of control.
For `O=c1[nH]ccn1-c1ccccc1`, the T/C [9] was 102 % of control, the T/C [10] was 100 % of control and the T/C [11] was 97 % of control.
For `N#CC1(C#N)C2CCCCC21` (centres undefined), the T/C (dose: 3.75 mg/kg/injection, schedule: Q01DX005 (ip), vehicle: saline with Tween-80) was 107 % of control, the T/C (dose: 7.5 mg/kg/injection, schedule: Q01DX005 (ip), vehicle: saline with Tween-80) was 100 % of control and the T/C (dose: 15.0 mg/kg/injection, schedule: Q01DX005 (ip), vehicle: saline with Tween-80) was 96 % of control.
With `Nc1nc(N)c2cc(CNc3ccc(C(=O)NC(C(=O)O)C(=O)O)cc3)ccc2n1` the T/C (dose: 0.05 mg/kg/injection, schedule: Q01DX009 (ip), vehicle: saline sonified) was 168 % of control, the T/C (dose: 0.1 mg/kg/injection, schedule: Q01DX009 (ip), vehicle: saline sonified) was 204 % of control and the T/C (dose: 0.2 mg/kg/injection, schedule: Q01DX009 (ip), vehicle: saline sonified) was 86 % of control. For the same compound, the T/C (dose: 100.0 micrograms/kg/injection, schedule: Q01DX009 (ip), vehicle: saline sonified) was 159 % of control.
In the case of `C=CCN(CC=C)C(N)=Nc1ccccc1Cl`, the T/C (dose: 6.25 mg/kg/injection, schedule: Q01DX005 (ip), vehicle: saline) is reported as 103 % of control, the T/C (dose: 12.5 mg/kg/injection, schedule: Q01DX005 (ip), vehicle: saline) is reported as 103 % of control and the T/C (dose: 25.0 mg/kg/injection, schedule: Q01DX005 (ip), vehicle: saline) is reported as 103 % of control.
In the case of `Cc1cc(C=C2C(=O)NC(=S)NC2=O)cc(C)c1O`, the T/C (dose: 12.5 mg/kg/injection, schedule: Q01DX005 (ip), vehicle: saline with Tween-80) is reported as 101 % of control and 96 % of control and 97 % of control and the T/C (dose: 25.0 mg/kg/injection, schedule: Q01DX005 (ip), vehicle: saline with Tween-80) is reported as 105 % of control and 106 % of control and 118 % of control.
`Nc1ccc(C(=O)Oc2ccc(OC(=O)c3ccc(N)cc3)cc2)cc1` was tested, and the T/C (dose: 25.0 mg/kg/injection, schedule: Q01DX001 (ip), vehicle: Klucel (hydroxypropylcellulose) (HPC)) was 99 % of control, the T/C (dose: 50.0 mg/kg/injection, schedule: Q01DX001 (ip), vehicle: Klucel (hydroxypropylcellulose) (HPC)) was 96 % of control and the T/C [2] was 101 % of control.
`O=C1C(=O)N(c2ccccc2)C(=O)N1c1ccccc1` was tested, and the T/C (dose: 6.25 mg/kg/injection, schedule: Q01DX009 (ip), vehicle: saline with Tween-80) was 96 % of control, the T/C (dose: 12.5 mg/kg/injection, schedule: Q01DX009 (ip), vehicle: saline with Tween-80) was 105 % of control and the T/C (dose: 25.0 mg/kg/injection, schedule: Q01DX009 (ip), vehicle: saline with Tween-80) was 104 % of control and 89 % of control. For the same compound, the T/C [7] was 101 % of control and 86 % of control.

Source: PubChem BioAssay AID330 (DTP/NCI, 2004)
